Measurements published in ChEMBL document CHEMBL5143694, “A novel survivin dimerization inhibitor without a labile hydrazone linker induces spontaneous apoptosis and synergizes with docetaxel in prostate cancer cells” (Bioorg Med Chem, 2022).
Active and inactive are the calls of the source. No cut-off for these calls is given here.

How the values were obtained:
[1] = target: Baculoviral IAP repeat-containing protein 5 (Homo sapiens) (UniProt O15392); experiment: Inhibition of survivin dimerization in human PC-3 cells assessed as survivin degradation at 500 nM incubated for 24 hrs by Western blot analysis; assay type: cell-based
Sequence of Baculoviral IAP repeat-containing protein 5 (Homo sapiens) (O15392 whole entry, the tested form may be a part): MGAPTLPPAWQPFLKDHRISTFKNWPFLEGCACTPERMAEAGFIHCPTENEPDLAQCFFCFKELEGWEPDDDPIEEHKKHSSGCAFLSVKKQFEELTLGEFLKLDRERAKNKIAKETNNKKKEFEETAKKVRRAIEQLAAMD

PC-3 [2] = experiment: Cytotoxicity against human PC-3 cells assessed as inhibition of cell survival at 2.5 uM incubated for 72 hrs by methylene blue survival assay; assay type: functional
LNCaP C4-2 [3] = experiment: Cytotoxicity against human LNCaP C4-2 cells with survivin overexpression assessed as reduction in cell viability incubated for 72 hrs by methylene blue survival assay; assay type: functional, cell-based; conditions: LNCaP C4-2, 72 h
LNCaP C4-2 [4] = experiment: Cytotoxicity against human LNCaP C4-2 cells assessed as inhibition of cell survival at 2.5 uM incubated for 72 hrs by methylene blue survival assay; assay type: functional
PC-3 [5] = experiment: Induction of apoptosis in human PC-3 cells assessed as increase in cleaved caspase-3 level at 200 nM incubated for 24 hrs by Western blot analysis; assay type: functional, cell-based
LNCaP C4-2 [6] = experiment: Induction of apoptosis in human LNCaP C4-2 cells assessed as increase in cleaved caspase-3 level at 200 nM incubated for 24 hrs by Western blot analysis; assay type: functional, cell-based
LNCaP C4-2 [7] = experiment: Cytotoxicity against human LNCaP C4-2 cells assessed as reduction in cell viability incubated for 72 hrs by methylene blue survival assay; assay type: functional, cell-based; conditions: LNCaP C4-2, 72 h
LNCaP C4-2 [8] = experiment: Cytotoxicity against human LNCaP C4-2 cells with empty vector-transfection assessed as reduction in cell viability incubated for 72 hrs by methylene blue survival assay; assay type: functional, cell-based; conditions: LNCaP C4-2, 72 h
[9] = target: Baculoviral IAP repeat-containing protein 5 (Homo sapiens) (UniProt O15392); experiment: Inhibition of survivin dimerization in human LNCaP C4-2 cells assessed as survivin degradation at 1 uM incubated for 24 hrs by Western blot analysis; assay type: cell-based
[10] = target: Baculoviral IAP repeat-containing protein 5 (Homo sapiens) (UniProt O15392); experiment: Inhibition of survivin-GAL4-DBD dimerization (unknown origin) expressed in human LNCaP C4-2 cells incubated for 24 hrs by SEAP reporter based mammalian two hybrid assay; assay type: cell-based
PC-3 [11] = experiment: Cytotoxicity against human PC-3 cells assessed as reduction in cell viability incubated for 72 hrs by methylene blue survival assay; assay type: functional, cell-based; conditions: PC-3, 72 h
PC-3 [12] = experiment: Synergistic potentiation of docetaxel-induced cytotoxicity against human PC-3 cells assessed as combination index for reduction in cell viability at docetaxel/7F1 ratios ((1:1, 3:1, and 1:3 using their cytotoxic IC50) incubated for 72 hrs by methylene blue survival assay; assay type: functional
LNCaP C4-2 [13] = experiment: Synergistic potentiation of docetaxel-induced cytotoxicity against human LNCaP C4-2 cells assessed as combination index for reduction in cell viability at docetaxel/7F1 ratios ((1:1, 3:1, and 1:3 using their cytotoxic IC50) incubated for 72 hrs by methylene blue survival assay; assay type: functional
LNCaP C4-2 [14] = experiment: Induction of apoptosis in human LNCaP C4-2 cells at 200 nM incubated for 24 hrs by annexin V-FITC and propidium iodide staining based flow cytometry; assay type: functional
[15] = target: Baculoviral IAP repeat-containing protein 5 (Homo sapiens) (UniProt O15392); experiment: Inhibition of survivin dimerization in human PC-3 cells assessed as survivin degradation at 1 uM incubated for 24 hrs by Western blot analysis; assay type: cell-based
PC-3 [16] = experiment: Induction of apoptosis in human PC-3 cells at 200 nM incubated for 24 hrs by annexin V-FITC and propidium iodide staining based flow cytometry; assay type: functional
[17] = target: Baculoviral IAP repeat-containing protein 5 (Homo sapiens) (UniProt O15392); experiment: Inhibition of survivin dimerization in human LNCaP C4-2 cells assessed as survivin degradation at 500 nM incubated for 24 hrs by Western blot analysis; assay type: cell-based

| Structure (SMILES) | inhibition [1] | inhibition at 2.5 µM (PC-3 [2]) [%] | IC50 (LNCaP C4-2 [3]) [nM] | inhibition at 2.5 µM (LNCaP C4-2 [4]) [%] | Activity (PC-3 [5]) | Activity (LNCaP C4-2 [6]) | IC50 (LNCaP C4-2 [7]) [nM] | IC50 (LNCaP C4-2 [8]) [nM] | inhibition [9] | inhibition [10] | IC50 (PC-3 [11]) [nM] | CI (PC-3 [12]) | CI (LNCaP C4-2 [13]) | Activity (LNCaP C4-2 [14]) [%] | inhibition [15] | Activity (PC-3 [16]) [%] | inhibition [17] |
| --- | --- | --- | --- | --- | --- | --- | --- | --- | --- | --- | --- | --- | --- | --- | --- | --- | --- |
| O=C1c2ccccc2-c2nc3nonc3nc21 | Active | > 80 | 950 | 80 | Active | Active | 170 | 200 | Active | Active | 160 | 0.025 | 0.025 | 20 | Active | 20 | Active |
| Nc1nonc1C(=O)N/N=C1\c2ccccc2-c2nc3nonc3nc21 | – | 50 | – | 50 | – | – | 2470 | – | Active | Active | 2990 | – | – | – | Active | – | – |
